# pIC50: −log10 of the molar value.
# Assays:
# U87 cells = experiment: CCK-8 cell proliferation assay, U87; type: cell-based; conditions: Homo sapiens, U-87 MG, 72 h, CCK-8, 72 h; read-out: IC50, U87 proliferation inhibition
# Method: The effects on cell proliferation were measured using a CCK-8 assay kit. A total of 3 × 10^3 cells were seeded per well in 96-well plates and incubated for 24, 48, or 72 h after drug administration. After 10 μL of CCK-8 solution was added to each well and incubated at 37 °C for 1–2 h, the absorbance at OD450 was read with an enzyme marker. The data were recorded and analyzed by GraphPad Prism software (version 8.0.2). For the cell growth assay, 2 × 10^3 cells were seeded per well in 96-well plates (n = 5). Ten microlitres of CCK-8 reagent was added at a fixed time every day, and the OD450 was read after 2 h. The statistical data were analyzed, and cell growth curves were plotted after a continuous period of 7 days.
# [1] = cited from earlier work
# NAD^+ in U87 cells = experiment: Measurement of NAD+ levels in U87 cells; type: cell-based, human; conditions: 10 nmol/L, compared with PF403
# Text: NAD^+ is a coenzyme found in all cells and consists of both NAD^+ (oxidized) and NADH (reduced) forms. NAD^+ can be used to transfer electrons during redox reactions and as a substrate used by many enzymes to participate in intracellular reactions. We used an NAD^+/NADH assay kit (Beyotime, S0175, Shanghai, China) based on the WST-8 method to determine the NAD^+/NADH content. Cells in 6-well plates were collected and lysed with NAD^+/NADH extract on ice, and the supernatant was used as the sample to be tested. A control solution with a gradient concentration of NADH was prepared with a 10 mmol/L NADH standard. The supernatant from the sample was first aspirated and used to determine the total amount of NAD^+ and NADH. Subsequently, the sample was heated at 60 °C for 30 min to remove the NAD^+, after which the supernatant was collected to determine the NADH concentration. Ethanol dehydrogenase was added to each well, and the plate was incubated at 37 °C in the dark for 10 min. Then, 10 μL of chromogenic solution was added, and the plate was incubated for 30 min. Afterward, the absorbance at 450 nm was measured, and the content was calculated by comparison with the standard curve. The content of NAD^+ was calculated by subtracting the content of NADH from the total amount.
# U87 xenograft = U87 xenograft model in nude mice; type: in vivo, nude mice (BALB/c-nude); conditions: for inhibitory effect in terms of tumor weight / inhibitory effect based on tumor volume: i.g.; for inhibitory effect in terms of tumor weight: 14th day; for inhibitory effect based on tumor volume: daily for 14 days
# Method: (§1) Six-week-old female athymic nude mice (BALB/c-nude) were obtained from GemPharmatech (Beijing, China). U87 cells (3 × 10^6 cells per animal) were injected into the rear right armpit of nude mice to generate xenograft tumors. Seven to ten days after injection, the tumors were visible to the naked eye (approximately 100 mm^3), and the mice were randomized into five groups (12 mice per group). The PF403 treatment groups were administered different doses of PF403 once daily via intragastric gavage (low dose, 3 mg/kg; median dose, 6 mg/kg; high dose, 12 mg/kg). The positive control drug used was temozolomide (50 mg/kg, i.g., Days 1–5), the first line of glioma treatment, while the control group was treated with 0.5% CMC-Na solution as a control. To validate the NAMPT knockdown group, we established the following groups: a control group (vehicle control, i.g., once daily, n = 12), a shNAMPT-2 knockdown group (vehicle control, i.g., once daily, n = 12), and a shNAMPT-2 knockdown group treated with CAT3 (6 mg/kg, i.g., once daily, n = 12). The body weights of the nude mice were recorded every two days, and the tumor weights were recorded on the 14th day after the mice were sacrificed.
# (§2) IHC was performed following standard protocols. Briefly, the standard protocol for Ki67 immunohistochemical staining involved tissue preparation, deparaffinization and rehydration, antigen retrieval, blocking, primary and secondary antibody incubations, visualization with DAB, counterstaining, mounting, microscopic examination, and image acquisition. To assess proliferation rates in tissue samples, the area of Ki67 expression was used for comparison in each group.
# shNAMPT-2 U87 xenograft = experiment: shNAMPT-2 U87 (NAMPT-knockdown) xenograft model; type: in vivo, nude mice (BALB/c-nude)
# Method: as §1, §2
# [2] = test system: shNAMPT-2 U87 orthotopic glioma; experiment: Orthotopic glioma model with shNAMPT-2 U87 cells, MRI; type: in vivo, nude mice (BALB/c-nude)
# Method: For the orthotopic glioma model, six-week-old female athymic nude mice (BALB/c-nude) were obtained from GemPharmatech (Beijing, China). Anesthetize nude mice with tribromoethanol at a concentration of 20 mg/mL and a dosage of 0.2 mL/10 g body weight. U87 cells (shNAMPT-2, 5 × 10^5 cells) suspended in 5 μL PBS buffer were injected intracranially into nude mice using stereotaxic restraint. The location was bregma +1.0 mm, right lateral 2.0 mm, profundity 3.5 mm, and return to 3.0 mm. After 3 days, 6 mg/kg of CAT3 was orally administered once daily for 11 days. Intracranial tumors were viewed using MRI. The body weights of mice were monitored once every 2 or 3 days. The feeding and handling of animals have been approved by the Animal Care & Welfare Committee Institute of Materia Medica, CAMS & PUMC (Approval numbers: 00008485, 00008487, 00008963).
# After 11 days of treatment, anatomical images of the intracranial tumor were acquired using an MRI scanner (PharmaScan 70/16 US, Bruker, Switzerland) on the nude mice. The parameters used in the scans to optimize gray/white matter contrast were as follows: a T2_TurboRARE, with TR/TE = 2795/35, 4 averages, 22 × 22 field-of-view, and 0.5 mm slice thickness. The scanning of all brains was completed in 25 sessions. The tumor volume was calculated using the sum of the areas in all images multiplied by the thickness of each slice (0.5 mm).
# U87 orthotopic glioma = test system: U87 orthotopic glioma; design: method as in PMID 27495899; conditions: 6 mg/kg, 11 days of continuous treatment; cited from earlier work
compound,measurement,setting,value
"COc1ccc2c3c(c4cc(OC)c(OC)cc4c2c1)CN1CCC[C@H]1C3 [CAT, (+)-Deoxytylophorinine]",pIC50,U87 cells,7.63
same,blood–brain barrier penetration,[1],effectively cross the blood–brain barrier
"O=C(/C=C/c1cccnc1)NCCCCC1CCN(C(=O)c2ccccc2)CC1 [FK866, (E)-Daporinad]",inhibitory effect on intracellular NAD^+ content,NAD^+ in U87 cells,better inhibitory effect on intracellular NAD^+ content than PF403
"(13aS)-3-pivaloyloxyl-6,7-dimethoxyphenanthro[9,10-b] indolizidine [CAT3]",inhibitory effect in terms of tumor weight,U87 xenograft; 6 mg/kg,55.37%
same,inhibitory effect based on tumor volume,U87 xenograft; 6 mg/kg,~58.41%
same,inhibitory effect in terms of tumor weight,U87 xenograft; 12 mg/kg,63.18%
same,inhibitory effect based on tumor volume,U87 xenograft; 12 mg/kg,~67.59%
same,expression of Ki67 in tumor (IHC),"U87 xenograft; after treatment, U87 xenograft",reduced
same,body weight of the nude mice,U87 xenograft; due to gastrointestinal reaction,decreased slightly in the first week and then gradually recovered
same,inhibitory effect on cell proliferation by tumor volume or weight,"shNAMPT-2 U87 xenograft; 6 mg/kg, i.g., daily for 14 days",no significant inhibitory effect
same,expression of Ki67 in tumor (IHC),"shNAMPT-2 U87 xenograft; effective dose (6 mg/kg), NAMPT-knockdown xenograft",not affected
same,body weight,"shNAMPT-2 U87 xenograft; over 14 days, gastrointestinal side effects",slight decrease in body weight
same,body weight of nude mice,[2]; early and middle stages of treatment,slight decrease in the body weight
same,NAMPT knockdown tumor volume (MRI),"[2]; treatment group, 6 mg/kg orally once daily for 11 days, n = 12",24.05 ± 13.99 mm^3
same,"inhibitory effect, orthotopic glioma model",U87 orthotopic glioma,~40%

# From article PMC12138128 (Acta Pharmaceutica Sinica. B, 2025)
